What was measured:
Assay type in all cases: cell-based, human
[1] = system: dental pulp stem cells (DPSCs); assay: Proliferation of dental pulp stem cells, cell number by the MTS method; details: for effect on proliferation of DPSCs compared with the control: 1 μM, Example 2, FIG. 5
Method: Dental pulp stem cells (DPSCs) were isolated in accordance with a method of Gronthos et al. (Proc. Natl. Acad. Sci. USA, 97: 13625-30, 2000) from a human extracted tooth that was submitted with informed consent under the permission of Okayama University Dental School Ethics Committee.
Specifically, pulp obtained from an extracted human tooth was enzyme-treated for 30 minutes at 37° C. with 3 mg/ml type 1 collagenase (Worthington Biochemicals Corp.) and 4 mg/ml dispase (Roche Diagnostic/Boehringer Mannheim Corp.), and then cultured using α-MEM culture medium containing 10% fetal bovine serum (FBS), L-ascorbic acid (0.1 mM), L-glutamine (2 mM), penicillin (100 μg/ml), and streptomycin (100 μg/ml).
Specifically, the DPSCs prepared above (1) were cultured under 5% CO2 at 37° C. in α-MEM culture medium including 10% fetal bovine serum (FBS) containing SVS at a concentration of 1 μM, L-ascorbic acid (0.1 mM), L-glutamine (2 mM), penicillin (100 μg/ml), and streptomycin (100 μg/ml). The culture medium was exchanged twice a week, and the number of cells on […] was indirectly evaluated using the MTS method (Barltrop, J. A. et al. 5-(3-carboxymethoxyphenyl)-2-(4,5-dimenthylthiazoly)-3-(4-sulfophenyl)tetrazolium, inner salt (MTS) and related analogs of 3-(4,5-dimethylthiazolyl)-2,5-diphenyl-tetrazolium bromide (MTT) reducing to purple water-soluble formazans as cell-viability indicators. Bioorg. & Med. Chem. Lett. 1, 611, 1991).
On day 0, day 3, and day 5 from the beginning of cultivation, the cell number of DPSCs was measured using the MTS method.
On day 5 from the beginning of cultivation, the cell number of DPSCs was measured using the MTS method.
Specifically, in Example 1, section (2), dental pulp stem cells (DPSCs) were cultured in the presence of each of the following: (a) simvastatin (1 μM) (simvastatin added group); (b) simvastatin (1 μM) and mevalonate (1 mM) (mevalonate added group); and (c) simvastatin (1 μM), mevalonate (1 mM) and Fasudil (10 μM) (Fasudil combined use group). On day 0, day 3, and day 5 from the beginning of cultivation, the cell number of DPSCs was measured using the MTS method.

[2] = system: osteocalcin (OCN) gene expression in dental pulp stem cells (DPSCs); assay: Gene expression of OCN (marker of calcification) in DPSCs by RT-PCR; details: for gene expression of OCN compared with the control and the comparison (BMP-2): 1 μM, day 14, Example 2, FIG. 6
Method: (§1) Specifically, the DPSCs prepared above (1) were cultured under a 5% CO2 gas phase at 37° C. in α-MEM culture medium including 10% fetal bovine serum (FBS) containing SVS at a concentration of 1 μM, L-ascorbic acid (0.1 mM), L-glutamine (2 mM), penicillin (100 μg/ml), and streptomycin (100 μg/ml). Total RNA was collected from cells obtained on day 3, day 7, and day 10 from the beginning of cultivation, and gene expression of dentin sialophosphoprotein (DSPP), i.e., an odontoblast-specific marker (Ritchie H H et al. J. Biol. Chem., 269:3698-702, 1994; Butler W T et al. Matrix., 12:343-51, 1992), and gene expression of osteocalcin (OCN), i.e., a marker of calcification (Bronckers A L et al. Connect Tissue Res., 22:65-70, 1989) were evaluated using qualitative RT-PCR (Narayanan K et al., J. Biol. Chem., 281(28):19064-71, 2006).
Dental pulp stem cells (DPSCs) were cultured in a manner similar to Example 1, section (3), using simvastatin (1 μM), fluvastatin (1 μM), mevastatin (1 μM), lovastatin (1 μM), and plavastatin (200 μM) respectively as HGM-CoA reductase inhibitors. Gene expression of OCN, i.e., a marker of calcification was evaluated on day 14, using qualitative RT-PCR.

[3] = system: dentin sialophosphoprotein (DSPP) gene expression in dental pulp stem cells (DPSCs); assay: Gene expression of DSPP (odontoblast-specific marker) in DPSCs by RT-PCR; details: SVS 1 μM, p=0.0111
Method: as §1

## O=S(=O)(c1cccc2cnccc12)N1CCCNCC1 [Fasudil]
[1]; Fasudil at not less than 10 μM (tested 1, 10, 100 μM), day 5, FIG. 7
  effect on proliferation of DPSCs: inhibited proliferation of DPSCs
[1]; simvastatin 1 μM + mevalonate 1 mM + Fasudil 10 μM, day 5, FIG. 8
  effect on cell proliferation of DPSCs, Fasudil combined use group: greater inhibition of cell proliferation of DPSCs than the comparison

## CC(C)n1c(/C=C/C(O)CC(O)CC(=O)O)c(-c2ccc(F)cc2)c2ccccc21 (stereo not drawn) [fluvastatin]
[1]; day 5
  effect on proliferation of DPSCs compared with the control: inhibited proliferation of DPSCs with a significant difference
[2]
  gene expression of OCN compared with the control and the comparison (BMP-2): increase in gene expression of OCN

## CC[C@H](C)C(=O)O[C@H]1C[C@@H](C)C=C2C=C[C@H](C)[C@H](CC[C@@H]3C[C@@H](O)CC(=O)O3)[C@H]21 [lovastatin]
[1]; day 5
  effect on proliferation of DPSCs compared with the control: inhibited proliferation of DPSCs with a significant difference
[2]
  gene expression of OCN compared with the control and the comparison (BMP-2): increase in gene expression of OCN

## CC(O)(CCO)CC(=O)O (stereo not drawn) [mevalonate]
[1]; simvastatin 1 μM + mevalonate 1 mM, day 5, FIG. 8
  effect of mevalonate supply on simvastatin-induced inhibition of DPSC proliferation: disappearance of the cell proliferation inhibiting effect

## CC[C@H](C)C(=O)O[C@H]1CCC=C2C=C[C@H](C)[C@H](CC[C@@H]3C[C@@H](O)CC(=O)O3)[C@H]21 [mevastatin]
[1]; day 5
  effect on proliferation of DPSCs compared with the control: inhibited proliferation of DPSCs with a significant difference
[2]
  gene expression of OCN compared with the control and the comparison (BMP-2): increase in gene expression of OCN

## O=C(O)C[C@H](O)C[C@H](O)/C=C/c1c(C2CC2)nc2ccccc2c1-c1ccc(F)cc1 [pitavastatin]
[1]; day 5
  effect on proliferation of DPSCs compared with the control: inhibited proliferation of DPSCs with a significant difference

## CCC(C)(C)C(=O)O[C@H]1C[C@@H](C)C=C2C=C[C@H](C)[C@H](CC[C@@H]3C[C@@H](O)CC(=O)O3)[C@H]21 [simvastatin]
[1]; SVS 1 μM, day 5 from the beginning of cultivation, vs control (PBS), significant decrease, p<0.0001
  proliferation of dental pulp stem cells (DPSCs): 0.73 fold
[3]
  increase in gene expression of DSPP: 10.9 fold
[2]; SVS 1 μM vs BMP-2 100 ng/ml, DPSCs, p=0.0002, Scheffe's multiple comparison test
  increase in gene expression of OCN compared with the BMP-2: 7.4 fold
[2]; SVS 1 μM, DPSCs, p=0.0004, Scheffe's multiple comparison test
  increase in gene expression of OCN compared with the control: 18.8 fold

B1: Noggin: a BMP inhibitor (R&D systems) (protein, UniProt Q13253 28-232, looked up)
Noggin: QHYLHIRPAPSDNLPLVDLIEHPDPIFDPKEKDLNETLLRSLLGGHYDPGFMATSPPEDRPGGGGGAAGGAEDLAELDQLLRQRPSGAMPSEIKGLEFSEGLAQGKKQRLSKKLRRKLQMWLWSQTFCPVLYAWNDLGSRFWPRYVKVGSCFSKRSCSVPEGMVCKPSKSVHLTVLRWRCQRRGGQRCGWIPIQYPIISECKCSC
[1]; day 5, Example 4, FIG. 9, statin = simvastatin 1 μM
  effect on cellular proliferation of DPSCs compared with the control: an effect on cellular proliferation of DPSCs was not observed
